Results published in ChEMBL document CHEMBL2346539, “Effects of geraniin on osteoclastic bone resorption and matrix metalloproteinase-9 expression” (2013).
Active and inactive are the calls of the source. The rule behind the calls is not given here.

Columns and labels:
[1] = Reduction of MMP9 protein expression in rat osteoclasts assessed as reduction in integral optical density by immunocytochemistry analysis; type: functional, cell-based; conditions: Osteoclast
[2] = Reduction of MMP9 protein expression in rat osteoclasts assessed as reduction in mean optical density by immunocytochemistry analysis; type: functional, cell-based; conditions: Osteoclast
[3] = Reduction of MMP9 mRNA expression in rat osteoclasts assessed as reduction in integral optical density at 10^-8 mol/L by in situ hybridization assay; type: functional, cell-based; conditions: Osteoclast
[4] = Reduction of MMP9 mRNA expression in rat osteoclasts assessed as reduction in mean optical density at 10^-8 mol/L by in situ hybridization assay; type: functional, cell-based; conditions: Osteoclast
Osteoclast [5] = assay: Inhibition of rat osteoclasts-induced resorption in bovine bone co-cultured for 72 hrs using toluidine blue staining by SEM analysis; type: functional, cell-based
Osteoclast [6] = assay: Reduction in number of resorption pits in rat osteoclasts-stimulated bovine bone at 10^-8 mol/L co-cultured for 72 hrs using toluidine blue staining by SEM analysis; type: functional, cell-based
Osteoclast [7] = assay: Inhibition of rat osteoclasts-induced resorption in bovine bone at 10^-8 mol/L co-cultured for 72 hrs using toluidine blue staining by SEM analysis; type: functional, cell-based
Bone [8] = assay: Inhibition of osteoclastogenesis in Sprague-Dawley rat bone assessed as inhibition of fusion index at 10^-10 mol/L after 72 hrs by microscopy; type: functional; conditions: Bone element
Bone [9] = assay: Inhibition of osteoclastogenesis in Sprague-Dawley rat bone assessed as inhibition of fusion index at 10^-11 mol/L after 72 hrs by microscopy; type: functional; conditions: Bone element
Bone [10] = assay: Inhibition of osteoclastogenesis in Sprague-Dawley rat bone assessed as inhibition of fusion index at 10^-9 mol/L after 72 hrs by microscopy; type: functional; conditions: Bone element
Bone [11] = assay: Reduction in number of pre-osteoclasts in Sprague-Dawley rat bone at 10^-8 mol/L after 72 hrs by microscopy; type: functional, tissue-based; conditions: Bone element
Bone [12] = assay: Inhibition of osteoclastogenesis in Sprague-Dawley rat bone assessed as inhibition of fusion index at 10^-8 mol/L after 72 hrs by microscopy; type: functional; conditions: Bone element
Bone [13] = assay: Inhibition of osteoclastogenesis in Sprague-Dawley rat bone assessed as decrease in TRAP-positive multi-nucleated cells at 10^-8 mol/L after 72 hrs by microscopy; type: functional, tissue-based; conditions: Bone element
Bone [14] = assay: Inhibition of osteoclastogenesis in Sprague-Dawley rat bone assessed as decrease in TRAP-positive multi-nucleated cells after 72 hrs by microscopy; type: functional, tissue-based; conditions: Bone element

With `O=C1O[C@H]2[C@@H]3OC(=O)c4cc(O)c(O)c(O)c4-c4c(cc(O)c(O)c4O)C(=O)OC[C@H]2O[C@@H](OC(=O)c2cc(O)c(O)c(O)c2)[C@@H]3OC(=O)c2cc(O)c(O)c3c2[C@@H]2C1=CC(=O)[C@](O)(O3)C2(O)O` [GERANIIN] the Activity [1] was “Dose-dependent effect”, the Activity [2] was “Dose-dependent effect” and the Activity [3] was “Active”. The Activity [4] was “Active”, the inhibition (Osteoclast [5]) was “Dose-dependent effect” and the Activity (Osteoclast [6]) was “Active”. For the same molecule, the inhibition (Osteoclast [7]) was “Active”, the inhibition at 0.0001 µM (Bone [8]) was 9.31% and the inhibition at 10 pM (Bone [9]) was 3.05%. The inhibition at 0.001 µM (Bone [10]) was 24.2%, the Activity (Bone [11]) was “Active” and the inhibition at 0.01 µM (Bone [12]) was 46%. For the same molecule, the inhibition (Bone [13]) was “Active” and the inhibition (Bone [14]) was “Dose-dependent effect”.
